Patent US7524853B2 (Solvay Pharmaceuticals B.V., priority 2003, dated 2009)

Experiments:
Type in all cases: cell-based
[1] = biological target: T1, 17β-hydroxysteroid dehydrogenase type 3 (17β-HSD type 3) (Homo sapiens, UniProt P37058); assay: Inhibition of 17β-HSD type 3 in MCF-7 cells stably expressing the isoenzyme (tritium labeled androstenedione conversion, HPLC); conditions: MCF-7 cells expressing 17β-HSD type 3, 2 nM tritium labeled androstenedione; for inhibition at 1 µM / inhibition at 10 µM: MCF7; for inhibition at 1 µM: read-out: % Inhibition HSD3 1 μM; for inhibition at 10 µM: read-out: % Inhibition HSD3 10 μM
T1 construct: expressed in transfected cells; host or cells: MCF-7
T1 sequence (P37058 1-310): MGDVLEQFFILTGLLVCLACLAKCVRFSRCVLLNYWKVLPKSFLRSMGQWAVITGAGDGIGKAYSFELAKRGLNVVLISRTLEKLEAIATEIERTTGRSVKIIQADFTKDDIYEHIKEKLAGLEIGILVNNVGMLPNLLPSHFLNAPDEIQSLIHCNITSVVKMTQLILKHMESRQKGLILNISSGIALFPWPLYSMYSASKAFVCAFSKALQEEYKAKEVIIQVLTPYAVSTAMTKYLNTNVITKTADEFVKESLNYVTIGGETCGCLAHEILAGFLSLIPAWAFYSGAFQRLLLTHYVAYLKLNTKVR
How it was run: (§1)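 Compounds are tested at two concentrations on MCF-7 cells carrying a single 17β-HSD isoenzyme, with 2 nM tritiated estrone, estradiol or androstenedione as type 1, 2 or 3 substrate. Percent inhibition reflects lower conversion relative to a compound-free control.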

[2] = biological target: T2, 17β-hydroxysteroid dehydrogenase type 2 (17β-HSD type 2) (Homo sapiens, UniProt P37059); assay: Inhibition of 17β-HSD type 2 in MCF-7 cells stably expressing the isoenzyme (tritium labeled estradiol conversion, HPLC); conditions: MCF-7 cells expressing 17β-HSD type 2, 2 nM tritium labeled estradiol; for inhibition at 1 µM / inhibition at 10 µM: MCF7; for inhibition at 1 µM: read-out: % Inhibition HSD2 1 μM; for inhibition at 10 µM: read-out: % Inhibition HSD2 10 μM
T2 construct: expressed in transfected cells; host or cells: MCF-7
T2 sequence (P37059 1-387): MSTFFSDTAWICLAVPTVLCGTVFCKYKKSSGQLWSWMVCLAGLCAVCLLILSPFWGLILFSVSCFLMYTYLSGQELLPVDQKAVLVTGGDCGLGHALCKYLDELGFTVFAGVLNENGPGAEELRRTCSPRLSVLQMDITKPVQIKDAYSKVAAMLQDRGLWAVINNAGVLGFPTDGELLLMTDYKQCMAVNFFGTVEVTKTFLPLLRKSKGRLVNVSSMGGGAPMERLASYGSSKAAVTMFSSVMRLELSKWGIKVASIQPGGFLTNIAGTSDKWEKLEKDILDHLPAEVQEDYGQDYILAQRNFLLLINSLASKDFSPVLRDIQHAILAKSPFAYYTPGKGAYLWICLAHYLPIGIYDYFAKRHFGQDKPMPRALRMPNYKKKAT
How it was run: as §1

[3] = biological target: T3, 17β-hydroxysteroid dehydrogenase type 1 (17β-HSD type 1) (Homo sapiens, UniProt P14061); assay: Inhibition of 17β-HSD type 1 in MCF-7 cells stably expressing the isoenzyme (tritium labeled estrone conversion, HPLC); conditions: MCF-7 cells expressing 17β-HSD type 1, 2 nM tritium labeled estrone; for inhibition at 1 µM / inhibition at 10 µM: MCF7; for inhibition at 1 µM: read-out: % Inhibition HSD1 1 μM; for inhibition at 10 µM: read-out: % Inhibition HSD1 10 μM
T3 construct: expressed in transfected cells; host or cells: MCF-7
T3 sequence (P14061 1-328): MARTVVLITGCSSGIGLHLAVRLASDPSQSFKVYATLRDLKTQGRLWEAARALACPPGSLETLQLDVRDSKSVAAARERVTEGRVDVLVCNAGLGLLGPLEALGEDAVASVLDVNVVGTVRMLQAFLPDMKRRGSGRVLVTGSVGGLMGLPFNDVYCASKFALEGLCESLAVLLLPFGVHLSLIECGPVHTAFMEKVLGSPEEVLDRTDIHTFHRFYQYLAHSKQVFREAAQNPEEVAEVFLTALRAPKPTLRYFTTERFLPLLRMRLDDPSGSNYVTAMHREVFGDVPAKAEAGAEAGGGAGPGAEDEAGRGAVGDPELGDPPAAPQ
How it was run: as §1

Row | SMILES | inhibition at 1 µM ([1]; 1 μM test compound) [%] | inhibition at 10 µM ([1]; 10 μM test compound) [%] | inhibition at 1 µM ([2]; 1 μM test compound) [%] | inhibition at 10 µM ([2]; 10 μM test compound) [%] | inhibition at 1 µM ([3]; 1 μM test compound) [%] | inhibition at 10 µM ([3]; 10 μM test compound) [%] | % Inhibition HSD3 1 μM ([1]; 1 μM test compound) [%] | % Inhibition HSD3 10 μM ([1]; 10 μM test compound) [%] | % Inhibition HSD2 1 μM ([2]; 1 μM test compound) [%] | % Inhibition HSD2 10 μM ([2]; 10 μM test compound) [%] | % Inhibition HSD1 1 μM ([3]; 1 μM test compound) [%] | % Inhibition HSD1 10 μM ([3]; 10 μM test compound) [%]
1 | COc1cc(-c2nc3sc4c(OC)cccc4c3c(=O)n2Cc2ccccc2)c(Br)c(OC)c1OC [No. 91, 3-Benzyl-8-methoxy-2-(2-bromo-3,4,5-trimethoxyphenyl)-3H-benzo[4,5]thieno[2,3-d]pyrimidin-4-one] | 3.7 | 18.1 | 28.2 | 33.7 | 21.5 | 26.1 |  |  |  |  |  | 
2 | CCCCn1c(-c2cc(OC)c(OC)c(OC)c2Br)nc2sc3c(O)cc(C)cc3c2c1=O [No. 694, 3-Butyl-2-(2-bromo-3,4,5-trimethoxyphenyl)-8-hydroxy-6-methyl-3H-benzo[4,5]thieno[2,3-d]pyrimidin-4-one] | 5.8 | 21.1 | 6.2 | 15.8 | 12.1 | 10.9 |  |  |  |  |  | 
3 | CCOC(=O)c1nc2sc3c(c2c(=O)n1-c1ccccc1)CCCC3 [No. 40, 4-Oxo-3-phenyl-3,4,5,6,7,8-hexahydro-benzo[4,5]thieno[2,3-d]pyrimidine-2-carboxylic acid ethyl ester] | 3.8 | 16.2 | 13.8 | 5.3 | 15.6 | 25 |  |  |  |  |  | 
4 | COc1cc(-c2nc3sc4c(c3c(=O)n2Cc2ccccc2)C(Br)CCC4=O)cc(OC)c1OC (stereo not drawn) [No. 137, 3-Benzyl-5-bromo-2-(3,4,5-trimethoxyphenyl)-6,7-dihydro-3H,5H-benzo[4,5]thieno[2,3-d]pyrimidine-4,8-dione] | 19.3 | 49.8 | 28.1 | 32.9 | 35 | 76 |  |  |  |  |  | 
5 | COC(=O)Cc1nc2sc3c(c2c(=O)n1Cc1ccccc1)CCCC3 [No. 26, 2-(acetic acid methyl ester)-3-benzyl-5,6,7,8-tetrahydro-3H-benzo[4,5]thieno[2,3-d]pyrimidin-4-one] | -6.1 | 7.1 | -1.8 | 32.3 | 23.5 | 37.4 |  |  |  |  |  | 
6 | CCCCn1c(-c2cc(OC)c(OC)c(OC)c2)nc2sc3c(c2c1=O)CCC(Br)(Br)C3=O [No. 88, 3-Butyl-7,7-dibromo-2-(3,4,5-trimethoxyphenyl)-6,7-dihydro-3H,5H-benzo[4,5]thieno[2,3-d]pyrimidine-4,8-dione] | 20.4 | 23.3 | 25.9 | 29.9 | 25 | 40.5 |  |  |  |  |  | 
7 | COc1cccc(-c2nc3sc4c(c3c(=O)n2Cc2ccccc2)CCCC4=O)c1 [No. 79, 3-Benzyl-2-(m-methoxyphenyl)-6,7-dihydro-3H,5H-benzo[4,5]thieno[2,3-d]pyrimidine-4,8-dione] | 21.9 | 59.7 | 34.4 | 31.6 | 26.6 | 39.1 |  |  |  |  |  | 
8 | O=c1c2c(nc(-c3cccs3)n1CCO)sc1c(O)c(Br)ccc12 [No. 149, 7-Bromo-8-hydroxy-3-(2-hydroxyethyl)-2-thiophen-2-yl-3H-benzo[4,5]thieno[2,3-d]pyrimidin-4-one] | 31 | 59.8 | 34.6 | 29.9 | 17.8 | 18.3 |  |  |  |  |  | 
9 | O=C(OCCn1c(-c2cccs2)nc2sc3c(c2c1=O)CCCC3=O)c1cccs1 [No. 70, Thiophene-2-carboxylic acid 2-(4,8-dioxo-2-thiohen-2-yl-5,6,7,8-tetrahydro-4H-benzo[4,5]thieno[2,3-d]pyrimidin-3-yl)-ethyl ester] | -4.1 | 44.2 | 13.1 | 17.9 | 15.3 | 39.4 |  |  |  |  |  | 
10 | CCCCn1c(-c2cccs2)nc2sc3c(c2c1=O)CCCC3 | 3.1 | 14.7 | 18.5 | 20.5 | 14.9 | 28.6 |  |  |  |  |  | 
11 | COc1cc(-c2nc3sc4c(c3c(=O)n2-c2ccccc2)CCCC4=O)cc(OC)c1OC [No. 11, 3-Phenyl-2-(3,4,5-trimethoxyphenyl)-6,7-dihydro-3H,5H-benzo[4,5]thieno[2,3-d]pyrimidine-4,8-dione] | -5.6 | 12.8 | -5.3 | 12.3 | 14.2 | 27.7 |  |  |  |  |  | 
12 | O=C1c2sc3nc(-c4ccccc4)n(Cc4ccccc4)c(=O)c3c2CCC1Br (stereo not drawn) [No. 58, 3-Benzyl-7-bromo-2-phenyl-6,7-dihydro-3H,5H-benzo[4,5]thieno[2,3-d]pyrimidine-4,8-dione] | 16 | 39.4 | 22.5 | 33.9 | 25.5 | 54.9 |  |  |  |  |  | 
13 | COc1ccc(-c2nc3sc4c(c3c(=O)n2Cc2ccccc2)CCCC4)cc1 [No. 12, 3-Benzyl-2-(p-methoxyphenyl)-5,6,7,8-tetrahydro-3H-benzo[4,5]thieno[2,3-d]pyrimidin-4-one] | 3.1 | 55.5 | 4.2 | 12.3 | 6.3 | 34.5 |  |  |  |  |  | 
14 | CCCCn1c(-c2cc(OC)c(OC)c(OC)c2)nc2sc3c(O)cccc3c2c1=O [No. 89, 3-Butyl-8-hydroxy-2-(3,4,5-trimethoxyphenyl)-3H-benzo[4,5]thieno[2,3-d]pyrimidin-4-one] | 30.9 | 80.1 | 31.2 | 40.1 | 37.7 | 84.7 |  |  |  |  |  | 
15 | CCCc1nc2sc3c(O)cccc3c2c(=O)n1Cc1ccc(Br)o1 [No. 105, 3-(5-Bromofuran-2-ylmethyl)-8-hydroxy-2-propyl-3H-benzo[4,5]thieno[2,3-d]pyrimidin-4-one] | 17.7 | 67.3 | 50.7 | 85.9 | 29.8 | 61.2 |  |  |  |  |  | 
16 | CCCc1nc2sc3c(c2c(=O)n1Cc1ccccc1OC)CCCC3=O [No. 95, 3-(2-Methoxybenzyl)-2-propyl-6,7-dihydro-3H,5H-benzo[4,5]thieno[2,3-d]pyrimidine-4,8-dione] | 9.9 | 62.4 | 6.9 | 31.2 | 17 | 59.6 |  |  |  |  |  | 
17 | O=c1c2c(nc(-c3ccc(F)cc3F)n1CCc1ccccc1)sc1c(O)cccc12 [No. 630] |  |  |  |  |  |  | 10.9 | 35.4 | 24.7 | 19.9 | 25.1 | 21.0
